Results reported in US5607953A, “Butenoic or propenoic acid derivative” (Eisai Co., Ltd., priority 1988, dated 1997).

What was measured:
[1] = system: anesthetized thoracotomized dog; experiment: Heart rate lowering and coronary bloodflow increasing effects upon anesthetized thoracotomized dog; assay type: in vivo; details: compounds of group (I), 0.3 mg/kg intravenous, anesthetized mongrel; for Coronary bloodflow (CBF): rate of increase in coronary bloodflow: left circumflex branch
Description: Heart Rate Lowering and Coronary Bloodflow Increasing Effects Upon Anesthetized Thoracotomized Dog
The chest of a grown-up mongrel was opened under enflurane inhalation anesthesia. The blood flow of the coronary artery was determined by setting a probe of an electromagnetic bloodflowmeter at its left circumflexbranch, while the heart rate was determined by triggering the wave form of the pressure in its left ventricle and counting it with a tachometer.
The intravenous administration of a test compound (in a dose of 0.3 mg per kg of the weight of the anesthetized mongrel) was carried out by using a catheter inserted into its femoral […].
The effect of increasing the bloodflow of the circumflex branch of the left coronary artery or the heart rate lowering effect was evaluated based on the difference between the bloodflow or the heart rate after the administration and that before the administration according to the following criteria.

[2] = Acute toxicity test (intravenous injection) using a mouse; details: in vivo
Description: The representative compounds of the present invention were examined by an ordinary acute toxicity test (intravenous injection) using a mouse to obtain the results shown in Table 4.

| SMILES | Heart rate (HR): rate of reduction in heart rate [1] | Coronary bloodflow (CBF): rate of increase in coronary bloodflow [1] | LD50 [2] [mg/kg] |
| --- | --- | --- | --- |
| CN(CCCNC(=O)C/C=C/c1ccc(-n2ccnc2)cc1)CCc1ccc2c(c1)OCO2 [Compound K, (E)-N-[3-((N'-(2-(3,4-Methylenedioxyphenyl)-ethyl)-N'-methyl)amino)propyl]-4-(4-(1H-imidazol-1-yl)phenyl)-3-butenamide] | ++ (11-20%) | + (1-100%) | – |
| COc1ccc(CCN(C)CCCNC(=O)C/C=C/c2ccc(-n3cnc(C)c3)cc2)cc1OC [Compound L, (E)-N-[3-((N'-(2-(3,4-Dimethoxyphenyl)ethyl)-N'-methyl)amino)propyl]-4-(4-(4-methyl-1H-imidazol-1-yl)phenyl)-3-butenamide] | + (1-10%) | + (1-100%) | 92 |
| COc1ccc(CCN(C)CCCNC(=O)C/C=C/c2ccc(-n3cncn3)cc2)cc1OC [Compound M, (E)-N-[3-((N'-(2-(3,4-Dimethoxyphenyl)ethyl)-N'-methyl)amino)propyl]-4-(4-(1H-1,2,4-triazol-1-yl)phenyl)-3-butenamide] | + (1-10%) | + (1-100%) | 120 |
